Laboratory results as given in US5440041A, “Acetal or ketal substituted xanthine compounds” (Cell Therapeutics, Inc., priority 1994, dated 1995).
Read-outs that look alike come from different tables or passages of the source.

What was measured:
[1] = system: human stromal cells; test: Stromal cell proliferation stimulated by PDGF; type: cell-based; details: for IC50: Homo sapiens; for inhibition of proliferation of human stromal cells stimulated with PDGF: in words
Method: Another assay for measuring activity of the inventive compounds involves determining PDGF (platelet derived growth factor) proliferative response using human-derived stromal cells. […] Two to three days later, the stromal cells are starved in serum-free media. Twenty four hours later, the cells are treated with a stimulating agent, such as PDGF-AA, PDGF-BB or basic FGF (fibroblast growth factor) with or without IL-1α or TNF, and tritiated thymidine. Cell proliferation is determined by liquid scintillation counting.
This assay is a model for restenosis and treatment of atherosclerosis and coronary artery disease. Stromal cells were starved in serum-free media for 24 hrs and then stimulated with PDGF-BB (50 ng/ml). The drugs were added at various concentrations one hour prior to PDGF stimulation. Tritiated thymidine was added for 24 hrs at the time of PDGF stimulation and proliferation determined by harvesting and counting the cells by liquid scintillation 24 hrs later.

[2] = system: adhesion of U937 cells to activated human umbilical vein endothelial cells (HUVEC); test: Adhesion of U937 cells to TNF-activated HUVEC; type: cell-based; details: HUVEC activated with 20 ng/ml human TNF for 12 hours; drug one hour prior to TNF; FIG. 5
Method: Another assay measures the effects of drug to inhibit adhesion of U937 cells to TNF-activated HUVEC cells In this experiment, HUVEC cells are induced with human TNF-α (20 ng/ml) and drug at varying concentrations for 14-16 hrs. U937 cells (a human monocyte cell line) are incubated and labeled with BCECF (10 μg/ml), a fluorescent dye. The U937 cell preparation (2.5×10^4 cells per well) is layered on top of the activated HUVEC cells. The cells are reverse spun to remove partially adhering and nonadhering U937 cell. The adherent U937 cells are measured by fluorescence on a fluorescent plate reader.
This example illustrates the effect of CT1573 to inhibit adhesion of U937 cells to activated human umbilical vein endothelial cells (HUVEC). HUVEC cells (4000/well, seeded 72 hrs in advance) were activated with 20 ng/ml of human TNF for 12 hours. CT1573 was added to the samples one hour prior to adding TNF. U937 cells were preloaded with a fluorescent dye (BCECF) were added to the HUVEC cells in each well for 30 min, the cells washed twice with PBS and adhesion measured after washing. Adhesion was measured on a fluorescence plate reader. Background adhesion of U937 cells to non-activated HUVEC is shown as a dashed line.

[3] = system: VCAM; test: Cell surface expression of VCAM in TNF-α-stimulated HUVEC (flow cytometry); type: cell-based, human; details: TNF-α (20 ng/ml) for 20 hrs; mean fluorescence intensity; FIG. 6
Method: Drug inhibitory activity can also be measured by determining levels of vascular cell adhesion molecule (VCAM) in stimulated cells. Early passage human umbilical vein endothelial cells (HUVEC) (obtained from commercial suppliers such as Cell Systems, Inc. or Clonetics) are cultured in media (e.g., Hepes buffered media, Cell Systems) containing 10% fetal bovine serum, and supplemented with a stimulating agent, such as fibroblast growth factor (acidic FGF, Cell Systems, Inc.) or TNF. The cells are plated into wells of a microliter plate (e.g., 5×10^4 per well) and allowed to incubate at 37° C. for 72 hrs. […] After 30 min on ice, the cells are washed twice and analyzed on a flow cytometer (Coulter Elite®) at appropriate emission and excitation wavelengths (e.g., for phycoerythrin use excitation at 488 nm and emission at […]).
The cells were stimulated with TNF-α(20 ng/ml) for 20 hrs and then stained for immunofluorescence using a monoclonal antibody recognizing VCAM, followed by a goat anti-mouse antibody conjugated to phycoerythrin. The cells were analyzed for antibody binding using flow cytometry.

[4] = system: 293-EBNA cells; test: Reporter gene expression (CMV promoter, secreted placental alkaline phosphatase) in tumor cells; type: cell-based; details: compared with CT1501R, CT1567 and CT1590; absorbance at 405 nm; FIG. 7
Excerpt: FIG. 7 illustrates the effects of CT1590 (racemate N-(5,6-[…]) theobromine), CT1573, CT1567 and CT1501R (an alcohol-substituted xanthine) on cell proliferation as a measure of antitumor activity and the ability of each drug to inhibit gene expression in tumor cells. A specific plasmid construct employing a human CMV (cytomegalovirus) promoter directs the expression of a reporter gene (secreted human placental alkaline phosphatase) that was transformed into the tumor cell line 293-EBNA cells. The cells were treated with various concentrations of drug. Antitumor activity was measured in culture supernatants by expression of alkaline phasphatase reporter gene by absorbance at 405 nm of cell conditioned medium in the presence of substrate (e.g., ortho-nitrophenol phosphate) as described in Berger et al. (Gene 66:1-10, 1988).
This example illustrates the effects of CT1590 (racemate N-(5,6-ethylenedioxyhexyl) theobromine), CT1573, CT1567 and CT1501R (an alcohol-substituted xanthine) on cell proliferation as a measure of antitumor activity and the ability of each drug to inhibit gene expression in tumor cells. A specific plasmid construct employing a human CMV (cytomegalovirus) promoter directs the expression of a reporter gene (secreted human placental alkaline phosphatase) that was transformed into the tumor cell line 293-EBNA cells. […]

[5] = system: PBMC (peripheral blood mononuclear cells); test: Two-way mixed lymphocyte reaction (MLR); type: cell-based, human; details: FIG. 1, FIG. 8
Excerpt: Various in vitro assays can be used to measure effects of the inventive compounds to modulate immune activity and have antitumor activity using a variety of cellular types. For example, a mixed lymphocyte reaction (MLR) provides a valuable screening tool to determine biological activity of each inventive compound. In the MLR, PBMCs (peripheral blood mononuclear cells) are obtained by drawing whole blood from healthy volunteers in a heparinized container and diluted with an equal volume of hanks balanced salt solution (HBSS). This mixture is layered on a sucrose density gradient, such as a Ficoll-Hypaque® gradient (specific gravity 1.08), and centrifuged at 1000×g for 25 minutes at room temperature or cooler. PBMC are obtained from a band at a plasma-Ficoll interface, separated and washed at least twice in a saline solution, such as HBSS. Contaminating red cells are lysed, such as by ACK lysis for 10 min at 37° C., and the PBMCs are washed twice in HBSS. The pellet of purified PBMCs is resuspended in complete medium, such as RPMI 1640 plus 20% human inactivated serum. Proliferative response of PBMC to allogeneic stimulation is determined in a two-way MLR performed in a 96-well microtiter plate. […] At the conclusion of the incubation tritiated thymidine is added (for example, 1 μCi/well of 40 to 60 Ci/mmole) and proliferation determined by liquid scintillation counting. […]

[6] = system: thymocyte; test: Thymocyte proliferation stimulated by ConA and IL-1α; type: cell-based, mice (Balb/C); details: drug added two hours prior to activation; FIG. 2
Method: (§1) A thymocyte costimulator assay is conducted to evaluate the inventive compounds to inhibit activation and proliferation of thymocytes caused by stimulation with Con A and interleukin-1 (IL-1), or interleukin-2 (IL-2). Thymuses are obtained from mice (e.g., female Balb/C mice) and the thymuses are removed and dissociated into culture media (e.g., RPMI 1640 without serum supplementation). The dissociated thymus tissue and cell suspension is transferred to centrifuge tubes and allowed to settle, washed with HBSS and resuspended in serum-supplemented culture media (e.g., RPMI 1640 with 10% fetal calf serum). Any contaminating red cells are lysed, and viable cells are resuspended and counted. Thymocytes are plated (e.g., 96-well plates at a density of 2×10^5 cells/well) and a stimulating agent, such as Con A, IL-1 (e.g., IL-1α) or IL-2 is added to the well. The cells are incubated for 4 days at 37° C. On the fourth day, the cells are pulsed with tritiated thymidine and cell proliferation determined. […]
(§2) Thymuses were obtained from normal, female Balb/C mice, dissociated, and plated into 96-well plates at a density of 2×10^5 cells/well. ConA and IL-1α were added to the wells and the cells were incubated for 4 days at 37° C. […] The cells were harvested and incorporated tritiated thymidine was determined in a liquid scintillation counter. […]

[7] = system: thymocyte; test: Thymocyte proliferation stimulated by ConA and IL-2; type: cell-based, mice (Balb/C); details: drug added two hours prior to activation; FIG. 3
Method: as §1, §2

[8] = system: polymorphonuclear leukocytes; details: in response to a stimulator of chemotaxis; U.S. Pat. No. 4,636,507; cited from earlier work
[9] = U.S. Pat. Nos. 4,515,795 and 4,576,947; cited from earlier work
[10] = PDGF BB and IL-1α, FIG. 4, FIG. 9, read-out: IC50 to inhibit stromal cell proliferation stimulated by PDGF BB and IL-1α

| SMILES | IC50 [1, 10] [µM] | inhibition of proliferation of human stromal cells stimulated with PDGF [1] | inhibition of cell surface expression of VCAM in HUVEC cells [3] | activity in mixed lymphocyte reaction (proliferative response of PBMC to allogeneic stimulation) [5] | further results |
| --- | --- | --- | --- | --- | --- |
| Cn1cnc2c1c(=O)n(CCCCCCCCC1COCO1)c(=O)n2C (racemic) [CT1573, N-(9,10-methylenedioxydecyl)-3,7-dimethylxanthine] | < 100 | strongly inhibit proliferation | inhibit cell surface expression of VCAM | – | IC50 ([1]; 1 h, PDGF-BB (50 ng/ml), drug one hour prior to stimulation, FIG. 4, read-out: IC50 to inhibit stromal cell proliferation stimulated by PDGF BB): < 100 µM; inhibition of adhesion of U937 cells to activated HUVEC [2]: reduced adhesion in a dose-dependent manner; inhibition of gene expression in tumor cells (antitumor activity) [4]: strongly inhibited gene expression |
| Cn1cnc2c1c(=O)n(CCCCC1COCO1)c(=O)n2C (racemic) [CT1590, N-(5,6-methylenedioxyhexyl)-3,7-dimethylxanthine] | ~100 | strongly inhibit proliferation | – | showed activity | – |
| Cn1cnc2c1c(=O)n(CCCCCC1OCCO1)c(=O)n2C [CT1567] | – | – | inhibit cell surface expression of VCAM | showed activity | inhibition of thymocyte proliferation stimulated by ConA and IL-1α [6]: inhibited thymocyte proliferation in a dose-response manner; inhibition of thymocyte proliferation stimulated by ConA and IL-2 [7]: inhibited thymocyte proliferation at the highest dose tested |
| CC(O)CCCCn1c(=O)c2c(ncn2C)n(C)c1=O (stereo not drawn) [M1, 1-(5-hydroxyhexyl)-3,7-dimethylxanthine] | – | – | – | – | effect on chemotaxis in polymorphonuclear leukocytes [8]: stimulate chemotaxis; effect on cerebral blood flow [9]: increasing cerebral blood flow |
